Experiments:
rat BT4C glioma cells [1] = experiment: In vivo PET imaging of subcutaneous glioma xenografts; design: species or system Foxn1^nu/nu mouse; conditions: for Tumor-to-background muscle ratio: at uptake plateau around 12.5 min
Excerpt: The subcutaneous tumor model was created by injecting rat BT4C glioma cells subcutaneously into the hind leg and neck region of six athymic nude (Foxn1^nu/nu, Envigo, Gannant, France) mice at 7 weeks old. Tumor growth was visually tracked and subjects PET imaged after 5 weeks. See Electronic Supplemental Materials (ESM) for detailed animal models.
One to two mice were imaged at a time while under 2 % isoflurane anesthesia with an Inveon multimodality small animal PET/CT scanner (Siemens Medical Solutions, Munich, Germany) commencing with an attenuation CT scan to correct the PET scan data. Ten to twelve megabequerels of the tracer was injected into the tail vein, and the subject(s) were imaged over a 60-min period in list mode dividing framing into 6 × 10 s, 4 × 60 s, 5 × 300 s, 3 × 600 s. Obtained sinograms were reconstructed using the ordered-subset expectation maximization 2-dimensional algorithm to obtain the final PET images and back-corrected for radionuclide decay.
(§1) Image analysis was performed using CARIMAS software published and freely distributed by the Turku PET Center (http://turkupetcentre.fi/carimas/). CT scans were used as rough anatomical reference while tumor regions of interest (ROI) were hand-drawn based upon observed spikes of radioactivity in the PET images at locations correlating with recorded tumor grafts. Control muscle ROIs were drawn on the side opposite to the tumor in the leg flank muscle (based on CT) while the blood ROI was drawn based upon heart anatomical location and observed PET image radioactivity spike during the initial 20 s of imaging in the left ventricle. Standardized uptake values (SUV) were calculated with respect to ROI volume, mean and max tumor radioactivity, total injected radioactivity dose (corrected for tail, cannula, and syringe residual radioactivity), and animal weight, and were additionally presented as tumor-to-background ratio (TBR, tumor-to-healthy brain region for intracranial gliomas and tumor-to-muscle for subcutaneous gliomas) as defined by recent glioma research literature standards. Mean and maximum TBR values were reported as ROI radioactivity per volume divided by mean background radioactivity per volume. The blood radioactivity SUV and gender-specific metabolite-corrected blood radioactivity SUV were then applied to multiple pharmacokinetic models to characterize the flux of the tracer (further described in the “Modeling” section).

rat BT4C glioma cells [2] = experiment: Patlak plot (irreversible uptake model), subcutaneous model; type: in vivo, Foxn1^nu/nu mouse; conditions: for Patlak Ic (AB) y intercept: AB input; for Patlak Ic (PC) y intercept: PC input
Method: as §1
(§2) Using the heart’s left ventricle ROI from the PET data as an uncorrected radioactivity level input and the bioavailable parent-tracer fraction (results: Eqs. 3 and 4 applied to the uncorrected input) as the corrected input, multiple models were investigated to characterize the tissue uptake dynamics. Two-compartment modeling and Logan, Patlak, and Yokoi plots were used to separately model the pharmacokinetics for the gliomas (both subcutaneous and orthotopic loci) and their respective control tissues (healthy muscle and healthy brain, respectively). Where indicated, means plus/minus standard deviations are reported. Difference in parameters for uncorrected versus correct and target tissue versus their respective control regions were tested with students’ paired t tests with P values lower than 0.05 being considered significant.

[3] = tested on: patient-derived BT3 glioma cells; experiment: 2-Compartment model, orthotopic model; type: in vivo, BALB/cOlaHsd-Foxn1^nu mouse
Method: as §1, §2

[4] = tested on: patient-derived BT3 glioma cells; experiment: Logan plot (reversible uptake model), orthotopic model; type: in vivo, BALB/cOlaHsd-Foxn1^nu mouse; conditions: for Logan DV (AB) distribution volume / Logan Ic (AB) y intercept: AB input; for Logan DV (PC) distribution volume / Logan IC (PC) y intercept: PC input
Method: as §1, §2

[5] = Bone (femoral condyle) average (n = 6)
[6] = Subject A brain (control), arterial blood input
[7] = Subject A brain (control), plasma-corrected input
[8] = Subject A glioma max., arterial blood input
[9] = Subject A glioma max., plasma-corrected input
[10] = Subject A o.t. glioma, arterial blood input
[11] = Subject A o.t. glioma, plasma-corrected input
[12] = Subject B brain (control), arterial blood input
[13] = Subject B brain (control), plasma-corrected input
[14] = Subject B glioma max., arterial blood input
[15] = Subject B glioma max., plasma-corrected input
[16] = Subject B o.t. glioma, arterial blood input
[17] = Subject B o.t. glioma, plasma-corrected input

SMILES: NC(=O)[C@H]([18F])C[C@H](N)C(=O)O [[^18F]FGln, (2S, 4R)-4-[^18F]fluoroglutamine]
- Tumor-to-background muscle ratio (rat BT4C glioma cells [1]; flank locus): 2.0 ± 0.8
- Tumor-to-background muscle ratio (rat BT4C glioma cells [1]; neck locus): 1.8 ± 0.6
- PET tumor-to-muscle (flank) ratio (rat BT4C glioma cells [1]; subcutaneous BT4C gliomas, n = 12): 1.9 ± 0.7
- Time at which tracer uptake plateaued (rat BT4C glioma cells [1]; subcutaneous BT4C tumors): around 12.5 min
- Patlak Ic (AB) y intercept (rat BT4C glioma cells [2]; [5]): 0.5752 ± 0.1597
- Patlak Ic (PC) y intercept (rat BT4C glioma cells [2]; [5]): 0.3705 ± 0.2561
- Patlak Ic (AB) y intercept (rat BT4C glioma cells [2]; Flank muscle average (n = 6)): 0.5790 ± 0.1835
- Patlak Ic (PC) y intercept (rat BT4C glioma cells [2]; Flank muscle average (n = 6)): 0.8154 ± 0.2742
- Patlak Ic (AB) y intercept (rat BT4C glioma cells [2]; Flank tumor average (n = 6)): 1.0521 ± 0.2524
- Patlak Ic (PC) y intercept (rat BT4C glioma cells [2]; Flank tumor average (n = 6)): 1.5318 ± 0.3888
- Patlak Ic (AB) y intercept (rat BT4C glioma cells [2]; Neck tumor average (n = 6)): 1.2083 ± 0.1715
- Patlak Ic (PC) y intercept (rat BT4C glioma cells [2]; Neck tumor average (n = 6)): 1.7708 ± 0.2668
- Irreversible uptake rate relative to reversible uptake rates (rat BT4C glioma cells [2]; Patlak versus reversible models): roughly 15 times lower
- 2-Compartment K1 [3, 6]: 0.015 mL min-1 mL-1
- 2-Compartment K1/k2 [3, 6]: 0.143 mL mL-1
- 2-Compartment Vb [3, 6]: 7.82%
- 2-Compartment k3 [3, 6]: 0.032 min⁻¹
- 2-Compartment k3*K1/k2 [3, 6]: 0.005
- 2-Compartment k3/(k2+k3) [3, 6]: 0.235
- 2-Compartment K1 [3, 7]: 0.016 mL min-1 mL-1
- 2-Compartment K1/k2 [3, 7]: 0.210 mL mL-1
- 2-Compartment Vb [3, 7]: 7.77%
- 2-Compartment k3 [3, 7]: 0.051 min⁻¹
- 2-Compartment k3*K1/k2 [3, 7]: 0.011
- 2-Compartment k3/(k2+k3) [3, 7]: 0.396
- 2-Compartment K1 [3, 8]: 0.149 mL min-1 mL-1
- 2-Compartment K1/k2 [3, 8]: 1.169 mL mL-1
- 2-Compartment Vb [3, 8]: 20%
- 2-Compartment k3 [3, 8]: 0.015 min⁻¹
- 2-Compartment k3*K1/k2 [3, 8]: 0.018
- 2-Compartment k3/(k2+k3) [3, 8]: 0.105
- 2-Compartment K1 [3, 9]: 0.156 mL min-1 mL-1
- 2-Compartment K1/k2 [3, 9]: 1.769 mL mL-1
- 2-Compartment Vb [3, 9]: 20%
- 2-Compartment k3 [3, 9]: 0.023 min⁻¹
- 2-Compartment k3*K1/k2 [3, 9]: 0.041
- 2-Compartment k3/(k2+k3) [3, 9]: 0.208
- 2-Compartment K1 [3, 10]: 0.116 mL min-1 mL-1
- 2-Compartment K1/k2 [3, 10]: 0.919 mL mL-1
- 2-Compartment Vb [3, 10]: 11.5%
- 2-Compartment k3 [3, 10]: 0.018 min⁻¹
- 2-Compartment k3*K1/k2 [3, 10]: 0.016
- 2-Compartment k3/(k2+k3) [3, 10]: 0.122
- 2-Compartment K1 [3, 11]: 0.123 mL min-1 mL-1
- 2-Compartment K1/k2 [3, 11]: 1.373 mL mL-1
- 2-Compartment Vb [3, 11]: 11.6%
- 2-Compartment k3 [3, 11]: 0.027 min⁻¹
- 2-Compartment k3*K1/k2 [3, 11]: 0.038
- 2-Compartment k3/(k2+k3) [3, 11]: 0.234
- 2-Compartment K1 [3, 12]: 0.017 mL min-1 mL-1
- 2-Compartment K1/k2 [3, 12]: 0.127 mL mL-1
- 2-Compartment Vb [3, 12]: 5.5%
- 2-Compartment k3 [3, 12]: 0.031 min⁻¹
- 2-Compartment k3*K1/k2 [3, 12]: 0.004
- 2-Compartment k3/(k2+k3) [3, 12]: 0.186
- 2-Compartment K1 [3, 13]: 0.018 mL min-1 mL-1
- 2-Compartment K1/k2 [3, 13]: 0.168 mL mL-1
- 2-Compartment Vb [3, 13]: 5.52%
- 2-Compartment k3 [3, 13]: 0.051 min⁻¹
- 2-Compartment k3*K1/k2 [3, 13]: 0.009
- 2-Compartment k3/(k2+k3) [3, 13]: 0.318
- 2-Compartment K1 [3, 14]: 0.102 mL min-1 mL-1
- 2-Compartment K1/k2 [3, 14]: 0.447 mL mL-1
- 2-Compartment Vb [3, 14]: 13.3%
- 2-Compartment k3 [3, 14]: 0.036 min⁻¹
- 2-Compartment k3*K1/k2 [3, 14]: 0.016
- 2-Compartment k3/(k2+k3) [3, 14]: 0.137
- 2-Compartment K1 [3, 15]: 0.111 mL min-1 mL-1
- 2-Compartment K1/k2 [3, 15]: 0.515 mL mL-1
- 2-Compartment Vb [3, 15]: 13.4%
- 2-Compartment k3 [3, 15]: 0.062 min⁻¹
- 2-Compartment k3*K1/k2 [3, 15]: 0.032
- 2-Compartment k3/(k2+k3) [3, 15]: 0.224
- 2-Compartment K1 [3, 16]: 0.061 mL min-1 mL-1
- 2-Compartment K1/k2 [3, 16]: 0.536 mL mL-1
- 2-Compartment Vb [3, 16]: 10.2%
- 2-Compartment k3 [3, 16]: 0.020 min⁻¹
- 2-Compartment k3*K1/k2 [3, 16]: 0.011
- 2-Compartment k3/(k2+k3) [3, 16]: 0.150
- 2-Compartment K1 [3, 17]: 0.063 mL min-1 mL-1
- 2-Compartment K1/k2 [3, 17]: 0.767 mL mL-1
- 2-Compartment Vb [3, 17]: 10.5%
- 2-Compartment k3 [3, 17]: 0.032 min⁻¹
- 2-Compartment k3*K1/k2 [3, 17]: 0.025
- 2-Compartment k3/(k2+k3) [3, 17]: 0.280
- Logan DV (AB) distribution volume ([4]; Subject A brain (control)): 1.61
- Logan Ic (AB) y intercept ([4]; Subject A brain (control)): -14.15
- Logan DV (PC) distribution volume ([4]; Subject A brain (control)): 2.97
- Logan IC (PC) y intercept ([4]; Subject A brain (control)): -25.16
- Logan DV (AB) distribution volume ([4]; Subject A glioma max.): 0.34
- Logan Ic (AB) y intercept ([4]; Subject A glioma max.): -18.72
- Logan DV (PC) distribution volume ([4]; Subject A glioma max.): 0.67
- Logan IC (PC) y intercept ([4]; Subject A glioma max.): -34.83
- Logan DV (AB) distribution volume ([4]; Subject A o.t. glioma): 1.51
- Logan Ic (AB) y intercept ([4]; Subject A o.t. glioma): -19.69
- Logan DV (PC) distribution volume ([4]; Subject A o.t. glioma): 2.97
- Logan IC (PC) y intercept ([4]; Subject A o.t. glioma): -36.03
- Logan Ic (AB) y intercept ([4]; Subject B brain (control)): -61.91
- Logan DV (PC) distribution volume ([4]; Subject B brain (control)): 2.57
- Logan IC (PC) y intercept ([4]; Subject B brain (control)): -50.78
- Logan DV (AB) distribution volume ([4]; Subject B glioma max.): 1.27
- Logan Ic (AB) y intercept ([4]; Subject B glioma max.): -26.85
- Logan DV (PC) distribution volume ([4]; Subject B glioma max.): 0.60
- Logan IC (PC) y intercept ([4]; Subject B glioma max.): -36.40
- Logan DV (AB) distribution volume ([4]; Subject B o.t. glioma): 0.32
- Logan Ic (AB) y intercept ([4]; Subject B o.t. glioma): -20.23
- Logan DV (PC) distribution volume ([4]; Subject B o.t. glioma): 1.95
- Logan IC (PC) y intercept ([4]; Subject B o.t. glioma): -41.27
